Test results as given in ChEMBL document CHEMBL1914349, “Porpoisamides A and B, two novel epimeric cyclic depsipeptides from a Florida Keys collection of Lyngbya sp” (Bioorg Med Chem, 2011).

Legend:
[1] = tested on: HCT-116; assay: Antiproliferative activity against human HCT116 cells after 48 hrs by MTT assay; type: functional, cell-based; settings: HCT-116, 48 h
[2] = tested on: U2OS; assay: Antiproliferative activity against human U2OS cells after 48 hrs by MTT assay; type: functional, cell-based

IC50 [1] [µM] | IC50 [2] [µM] | SMILES
25 | 28 | CCCCC[C@H]1NC(=O)[C@H](C)NC(=O)[C@@H](Cc2ccccc2)N(C)C(=O)[C@@H]2CCCN2C(=O)[C@H]([C@@H](C)CC)OC(=O)[C@H]1C [PORPOISAMIDE A]
21 | 22 | CCCCC[C@H]1NC(=O)[C@H](C)NC(=O)[C@@H](Cc2ccccc2)N(C)C(=O)[C@@H]2CCCN2C(=O)[C@H]([C@@H](C)CC)OC(=O)[C@@H]1C [PORPOISAMIDE B]
